Measured values from patent publication US20240226115A1, “AXL INHIBITOR COMPOUNDS” (ARCUS BIOSCIENCES, INC., priority 2021, published 2024).

Molecular target: T1, Axl (Homo sapiens, UniProt P30530)
T1 sequence (P30530 26-894): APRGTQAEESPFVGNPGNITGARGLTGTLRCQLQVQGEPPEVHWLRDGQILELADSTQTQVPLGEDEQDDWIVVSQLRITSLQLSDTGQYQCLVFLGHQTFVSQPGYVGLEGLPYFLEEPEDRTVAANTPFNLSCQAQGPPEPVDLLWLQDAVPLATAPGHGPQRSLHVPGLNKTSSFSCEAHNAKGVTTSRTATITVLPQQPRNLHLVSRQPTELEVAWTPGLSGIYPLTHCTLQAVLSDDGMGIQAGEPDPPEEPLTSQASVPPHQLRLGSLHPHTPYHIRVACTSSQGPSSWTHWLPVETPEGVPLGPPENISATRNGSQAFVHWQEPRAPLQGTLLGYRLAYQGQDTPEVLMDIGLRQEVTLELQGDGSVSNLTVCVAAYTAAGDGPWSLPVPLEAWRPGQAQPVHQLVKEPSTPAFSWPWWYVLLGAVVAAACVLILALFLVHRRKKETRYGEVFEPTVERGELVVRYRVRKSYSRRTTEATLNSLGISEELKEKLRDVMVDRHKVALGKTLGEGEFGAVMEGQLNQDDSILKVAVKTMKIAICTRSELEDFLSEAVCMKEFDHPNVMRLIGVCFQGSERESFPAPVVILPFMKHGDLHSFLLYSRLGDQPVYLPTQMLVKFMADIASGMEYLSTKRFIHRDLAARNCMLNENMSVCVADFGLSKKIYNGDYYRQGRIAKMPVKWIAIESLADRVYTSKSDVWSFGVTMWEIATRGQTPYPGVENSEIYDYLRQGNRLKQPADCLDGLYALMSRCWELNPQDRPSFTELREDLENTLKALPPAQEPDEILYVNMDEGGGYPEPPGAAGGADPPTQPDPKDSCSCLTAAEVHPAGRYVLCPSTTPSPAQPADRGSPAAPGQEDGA
Test: Axl NanoBRET intracellular kinase assay (Cell Binding)
Parameters: host or cells: HEK-293
Details: HEK-293 cells transfected with Axl-NanoLuc fusion vector; displacement of K-5 NanoBRET tracer
How it was run: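 BRET ratio (610 nm/450 nm) decrease from K-5 tracer displacement gave binding; IC50 by 4-parameter non-linear regression of percent activity. Live HEK-293 cells expressed transiently transfected Axl-NanoLuc. Compound 1 h, then 0.35 μM tracer 2 h, both 37 °C, 5% CO2.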

Row | Compound | IC50
1 | C[C@@H]1CCCN1C1CCc2cc(F)c(-c3cnc4[nH]nc(-c5ccc6c(c5)OCCNC6=O)c4c3)cc2CC1 (stereo partly drawn) [Example 58, 8-(5-{3-Fluoro-7-[(2R)-2-methylpyrrolidin-1-yl]-6,7,8,9-tetrahydro-5H-benzo[7]annulen-2-yl}-1H-pyrazolo[3,4-b]pyridin-3-yl)-2,3,4,5-tetrahydro-1,4-benzoxazepin-5-one] | < 100 nM
2 | CC1(O)CCCCc2cc(-c3n[nH]c4ncc(-c5ccc6c(c5)CCN(C5CCCC5)CC6)cc34)ccc21 (centres unmarked) [Example 27, 2-[5-(3-Cyclopentyl-2,3,4,5-tetrahydro-1H-3-benzazepin-7-yl)-1H-pyrazolo[3,4-b]pyridin-3-yl]-5-methyl-6,7,8,9-tetrahydro-5H-benzo[7]annulen-5-ol] | 100 to 1000 nM
3 | CC1(O)CCOc2cc(-c3n[nH]c4ncc(-c5ccc6c(c5)CC[C@@H](N5CCCC5)CC6)cc34)ccc21 (stereo partly drawn) [Example 31, 4-Methyl-7-{5-[(7S)-7-(pyrrolidin-1-yl)-6,7,8,9-tetrahydro-5H-benzo[7]annulen-2-yl]-1H-pyrazolo[3,4-b]pyridin-3-yl}-3,4-dihydro-2H-1-benzopyran-4-ol] | < 100 nM
4 | O=C1NCCOc2cc(-c3n[nH]c4ncc(-c5ccc6c(c5)CCN(C5COC5)C6)cc34)ccc21 [Example 12, 8-(5-(2-(Oxetan-3-yl)-1,2,3,4-tetrahydroisoquinolin-6-yl)-1H-pyrazolo[3,4-b]pyridin-3-yl)-3,4-dihydrobenzo[f][1,4]oxazepin-5(2H)-one] | 100 to 1000 nM
5 | O=C1NCCOc2cc(-c3n[nH]c4ncc(-c5ccc6c(c5)CCC(N[C@@H]5CCOC5)CC6)cc34)ccc21 (stereo partly drawn) [Example 46, 8-[5-(7-{[(3R)—Oxolan-3-yl]amino}-6,7,8,9-tetrahydro-5H-benzo[7]annulen-2-yl)-1H-pyrazolo[3,4-b]pyridin-3-yl]-2,3,4,5-tetrahydro-1,4-benzoxazepin-5-one] | < 100 nM
6 | O=C1NCCOc2cc(-c3n[nH]c4ncc(-c5ccc6c(c5)CCC(N[C@H]5CCOC5)C6)cc34)ccc21 (stereo partly drawn) [Example 4, 8-[5-(6-{[(3S)—Oxolan-3-yl]amino}-5,6,7,8-tetrahydronaphthalen-2-yl)-1H-pyrazolo[3,4-b]pyridin-3-yl]-2,3,4,5-tetrahydro-1,4-benzoxazepin-5-one] | < 100 nM
7 | O=C1NCCOc2cc(-c3n[nH]c4ncc(-c5ccc6c(c5)CCN(C5CC5)CC6)cc34)ccc21 [Example 20, 8-(5-(3-Cyclopropyl-2,3,4,5-tetrahydro-1H-benzo[d]azepin-7-yl)-1H-pyrazolo[3,4-b]pyridin-3-yl)-3,4-dihydrobenzo[f][1,4]oxazepin-5(2H)-one] | 100 to 1000 nM
8 | O=C1NCCOc2cc(-c3n[nH]c4ncc(-c5ccc6c(c5)CCNCC6)cc34)ccc21 [Example 53, 8-(5-(2,3,4,5-Tetrahydro-1H-benzo[d]azepin-7-yl)-1H-pyrazolo[3,4-b]pyridin-3-yl)-3,4-dihydrobenzo[f][1,4]oxazepin-5(2H)-one] | 100 to 1000 nM
9 | O=C1NCCOc2cc(-c3n[nH]c4ncc(-c5ccc6c(c5)CC[C@@H](N5CCCC5)CC6)cc34)ccc21 (single isomer, unassigned) [Example 57] | < 100 nM
10 | O=C1NCCOc2cc(-c3n[nH]c4ncc(-c5ccc6c(c5)CC(N5CCCC5)CC6)cc34)ccc21 (centres unmarked) [Example 3, 8-{5-[7-(Pyrrolidin-1-yl)-5,6,7,8-tetrahydronaphthalen-2-yl]-1H-pyrazolo[3,4-b]pyridin-3-yl}-2,3,4,5-tetrahydro-1,4-benzoxazepin-5-one] | 100 to 1000 nM
11 | C[C@@H]1CCCN1C1CCc2ccc(-c3cnc4[nH]nc(-c5ccc6c(c5)OCC5(CC5)NC6=O)c4c3)cc2CC1 (stereo partly drawn) [Example 36, 8-(5-{7-[(2R)-2-Methylpyrrolidin-1-yl]-6,7,8,9-tetrahydro-5H-benzo[7]annulen-2-yl}-1H-pyrazolo[3,4-b]pyridin-3-yl)-4,5-dihydro-2H-spiro[1,4-benzoxazepine-3,1′-cyclopropan]-5-one] | < 100 nM
12 | O=C1NCCOc2cc(-c3n[nH]c4ncc(-c5ccc6c(c5)CN(C5CCCC5)CC6)cc34)ccc21 [Example 10, 8-(5-(2-Cyclopentyl-1,2,3,4-tetrahydroisoquinolin-7-yl)-1H-pyrazolo[3,4-b]pyridin-3-yl)-3,4-dihydrobenzo[f][1,4]oxazepin-5(2H)-one] | 100 to 1000 nM
13 | CC[C@@H]1CCCN1C1CCc2ccc(-c3cnc4[nH]nc(-c5ccc6c(c5)OCCNC6=O)c4c3)cc2CC1 (stereo partly drawn) [Example 25, 8-(5-{7-[(2R)-2-Ethylpyrrolidin-1-yl]-6,7,8,9-tetrahydro-5H-benzo[7]annulen-2-yl}-1H-pyrazolo[3,4-b]pyridin-3-yl)-2,3,4,5-tetrahydro-1,4-benzoxazepin-5-one] | < 100 nM
14 | O=C1NCCOc2cc(-c3n[nH]c4ncc(-c5ccc6c(c5)CCC(N5CCC5)CC6)cc34)ccc21 (centres unmarked) [Example 52, 8-(5-(7-(Azetidin-1-yl)-6,7,8,9-tetrahydro-5H-benzo[7]annulen-2-yl)-1H-pyrazolo[3,4-b]pyridin-3-yl)-3,4-dihydrobenzo[f][1,4]oxazepin-5(2H)-one] | < 100 nM
